Source: PMC12137981 (Acta Pharmaceutica Sinica. B, 2025)

Biological target: SUMOylation activating enzyme subunit 1 (SAE1) (Homo sapiens, UniProt Q9UBE0)
Assay: MST with RED-NHS-labeled purified SAE1
Type: binding

Sequence of SUMOylation activating enzyme subunit 1 (SAE1) (Q9UBE0 whole entry): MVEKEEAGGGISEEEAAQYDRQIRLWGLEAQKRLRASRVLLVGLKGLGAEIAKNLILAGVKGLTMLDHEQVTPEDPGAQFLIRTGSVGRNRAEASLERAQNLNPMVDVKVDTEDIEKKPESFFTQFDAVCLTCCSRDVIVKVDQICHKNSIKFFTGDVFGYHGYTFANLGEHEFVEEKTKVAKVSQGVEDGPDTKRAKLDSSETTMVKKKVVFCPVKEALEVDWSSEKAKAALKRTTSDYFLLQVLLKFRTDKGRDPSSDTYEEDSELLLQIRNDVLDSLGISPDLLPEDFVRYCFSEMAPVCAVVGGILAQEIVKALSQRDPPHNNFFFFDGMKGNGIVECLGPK

Work on `COc1cc2c(c(OC)c1OC)-c1ccc(OC)c(=O)cc1[C@@H](NC(C)=O)CC2` [COL, colchicine] yielded a Kd of 2560 nM.
